From patent US12201684B2, “Compositions for stimulation of mammalian innate immune resistance to pathogens” (priority 2009, dated 2025)

Columns and labels:
[1] = system: neutrophils and macrophages in BAL fluid; assay: Bronchoalveolar lavage fluid leukocyte counts after aerosolized TLR ligands; format: in vivo, mice
[2] = cited from earlier work
[3] = system: P. aeruginosa strain PA103; assay: In vivo inhalational P. aeruginosa challenge, survival; settings: wild type mice; aerosolized treatment 24 h prior to challenge

poly(I:C)
influx of macrophages on BAL ([1]; 24 h after treatment): significant influx

CCC(=O)O[C@]1(C(=O)SCF)[C@H](C)C[C@H]2[C@@H]3C[C@H](F)C4=CC(=O)C=C[C@]4(C)[C@@]3(F)[C@@H](O)C[C@@]21C [Fluticasone propionate, S-(fluromethyl)6α,9-difluoro-11β-17-dihydroxy-16α-methyl-3-oxoandrosta-1,4-diene-17β-carbothioate, 17-propionate]
solubility in dimethyl sulfoxide and dimethylformamide [2]: freely soluble
solubility in methanol and 95% ethanol [2]: slightly soluble
solubility in water [2]: practically insoluble

monophosphoryl lipid A-synthetic [MPLA]
protection against lethal P. aeruginosa pneumonia (survival) [3]: non-significant trend towards increased mortality

CC(C)Cn1cnc2c(N)nc3ccccc3c21 [imiquimod, 1-(2-methylpropyl)-1H-imidazo[4,5-c]quinolin-4-amine]
protection against lethal P. aeruginosa pneumonia (survival) [3]: trend towards protection
neutrophil infiltration above a certain ligand concentration ([1]; BAL 24 h after treatment, highest concentrations tested): reduction in neutrophil infiltration
